Results reported in patent US20060275505A1, “Method and composition for increasing the alkalinity of the body” (priority 2005, published 2006).

Each compound was assayed on acid reflux (assay: Example 13 case study, acid reflux). Details: patient history.
Type: in vivo, human
Description: A person had suffered from acid reflux for two years. The reflux was severe enough to wake them once or twice every night, and they slept in an inclined bed. […] The patient drank a small glass of water with Alka Vita each night.
In the case of `COc1ccc2[nH]c([S@@+]([O-])Cc3ncc(C)c(OC)c3C)nc2c1` [Nexium], the “relief of acid reflux by drugs tried before” value (shortened to “relief of acid reflux”) is reported as “no relief”.
`NC(N)=Nc1nc(CSCCC(N)=NS(N)(=O)=O)cs1` [Pepcid AC] was tested, and the “relief of acid reflux” value was “no relief”.
With `COc1ccc2[nH]c([S+]([O-])Cc3ncc(C)c(OC)c3C)nc2c1` (stereo not shown) [Prilosec] the “relief of acid reflux” value was “no relief”.
With `COc1cc(N)c(Cl)cc1C(=O)NC1CCN(CCCOc2ccc(F)cc2)CC1OC` (stereo not shown) [Propulsid] the “relief of acid reflux” value was “no relief”.
